This is an account of results in article PMC4067310, “From Pan-Reactive KV7 Channel Opener to Subtype Selective Opener/Inhibitor by Addition of a Methyl Group” (PLoS ONE, 2014).

The term fraction unbound denotes the share of the substance not bound to proteins or other matrix. Higher therefore signals weak binding.

The target in one data set is T1, KV7.4-W242L (Homo sapiens, UniProt P56696, W242L).
T1 construct: expressed in transfected cells; host or cells: Xenopus laevis oocytes injected with cRNA (pGEM-HE vector)
T1 sequence (P56696 1-695 W242L): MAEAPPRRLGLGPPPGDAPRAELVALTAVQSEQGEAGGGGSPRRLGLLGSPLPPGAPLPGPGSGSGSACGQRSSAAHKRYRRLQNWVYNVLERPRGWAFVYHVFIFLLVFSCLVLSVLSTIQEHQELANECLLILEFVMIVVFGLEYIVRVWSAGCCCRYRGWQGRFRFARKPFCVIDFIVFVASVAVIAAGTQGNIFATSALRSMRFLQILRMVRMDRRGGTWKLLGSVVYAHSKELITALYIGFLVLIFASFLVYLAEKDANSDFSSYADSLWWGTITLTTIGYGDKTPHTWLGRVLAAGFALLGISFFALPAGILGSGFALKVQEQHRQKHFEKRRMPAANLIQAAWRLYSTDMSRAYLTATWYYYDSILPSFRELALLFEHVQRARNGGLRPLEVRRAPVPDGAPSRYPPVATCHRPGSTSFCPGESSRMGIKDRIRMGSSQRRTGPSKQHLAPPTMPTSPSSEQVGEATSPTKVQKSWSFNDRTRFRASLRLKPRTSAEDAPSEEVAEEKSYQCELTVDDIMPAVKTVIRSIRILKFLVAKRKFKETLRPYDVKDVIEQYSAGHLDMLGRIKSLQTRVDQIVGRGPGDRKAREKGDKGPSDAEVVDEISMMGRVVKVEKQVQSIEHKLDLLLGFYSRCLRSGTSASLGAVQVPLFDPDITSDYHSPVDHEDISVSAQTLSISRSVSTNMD
Kind of data set: Two-electrode voltage-clamp of mutant KV7.4-W242L in Xenopus laevis oocytes. The class given is cell-based. The protocol:
Point mutations were introduced using mutated oligonucleotide extension (PfuTurbo Polymerase, Stratagene, La Jolla, CA, USA) from a plasmid template harboring the cDNA of interest, digested with DpnI (Fermentas, St. Leon-Roth, Germany) and transformed into E.coli XL1 Blue cells. The construct was verified by complete DNA sequencing of the cDNA insert. cRNA was prepared from linearized human wild-type (WT) and mutant KV7 channels in the pGEM-HE vector using the T7 m-Message Machine kit (Ambion, Austin, TX, USA) according to the manufacturer's instructions.
Extraction of Xenopus laevis oocytes and injection of cRNA was performed as described previously. Oocytes were kept in Modified Barth's Saline (in mM: 88 NaCl, 1 KCl, 2.4 NaHCO3, 0.41 CaCl2, 0.82 MgSO4, 0.3 Ca(NO3)2, 15 HEPES, pH 7.4 supplemented with 100 U/mL penicillin and 100 µg/mL streptomycin) at 18°C, and currents were recorded after 2-7 days. The care of Xenopus laevis and the oocyte extraction procedure were performed according to national guidelines and approved by the Danish Animal Experiments Inspectorate.
KV7 currents in Xenopus laevis oocytes were recorded using two-electrode voltage-clamp at room temperature in Ringer buffer (in mM: 115 NaCl, 2.5 KCl, 1.8 CaCl2, 0.1 MgCl2, 10 HEPES, pH 7.4) as described previously. Data was acquired using pCLAMP 10.2 software (Molecular Devices, CA, USA) and analyzed using pCLAMP 10.2 and GraphPad Prism 4.0 (GraphPad Software Inc., CA, USA). Currents were elicited from a holding potential of −80 mV by 5 s steps to potentials between −100 and +50 mV in 10 mV increments, followed by a 2 s step to −120 mV.
SMB-1 was dissolved in dimethyl sulfoxide (DMSO) to obtain a concentrated stock solution. […]
Current – voltage (I–V) relationship curves were generated by normalizing the steady-state peak current measured at potentials between −100 and +50 mV to the current measured at +50 mV in control recordings and plotting the values against the test potential.
The voltage-dependence of activation was determined from tail current analysis using the current measured immediately after the transient capacitive current after stepping to −120 mV from potentials between −100 mV and +50 mV. […] A V0.5 was calculated for each individual experiment and statistical significance was estimated by paired two-tailed Student's t-test.
Activation kinetics for KV7.4 and KV7.4-W242L was determined by fitting the traces recorded at potentials between −30 and +50 mV to a single exponential function: [drawing 3] […]
For investigation of deactivation kinetics the tail current traces recorded at −120 mV when stepping from the channels' respective ∼V0.5 were fitted to a single exponential function (Eq. 3).
For orientation: Two-electrode voltage clamp holds a large cell at a set potential and records current.

Data set [1] in a line: Free fraction by equilibrium dialysis, rat plasma. Particulars: equilibrium dialysis 37°C 5 h, mean ± S.E.M., n = 3. Type of data set: in vitro ADME. On the procedure: (§1) The bidirectional permeability (Papp) of SMB-1 was examined in an MDCK cell system expressing human MDR1 [ABCB1, P-glycoprotein (P-gp)] as described previously. Permeation of the test compound from apical (A) to basal (B) direction or B to A direction was determined in triplicate over a 150-min incubation at 37°C. The efflux ratio was calculated as the ratio between Papp (B to A) and Papp (A to B). Free fraction of SMB-1 was determined using a standard equilibrium dialysis methodology with freshly isolated rat brain homogenate or plasma. Equilibrium dialysis was performed by incubating at 37°C for 5 h in triplicates.
In general terms: Equilibrium dialysis compares concentrations on both sides of a semipermeable membrane.

Data set [2] in a line: Free fraction by equilibrium dialysis, rat brain homogenate. The class given is in vitro ADME. To be noted: equilibrium dialysis 37°C 5 h, mean ± S.E.M., n = 3. On the procedure: as §1
Data set [3] is described as follows: Visual inspection of solution in Ringer buffer for precipitation. The class given is physicochemical. The protocol: SMB-1 was dissolved in dimethyl sulfoxide (DMSO) to obtain a concentrated stock solution. On the day of experiments the stock solution was thawed and diluted in Ringer buffer to the final concentrations. A concentration of 10 µM SMB-1 was used unless indicated otherwise. The final DMSO concentration never exceeded 0.1%.
To determine the potency of SMB-1 on KV7.2 the compound was tested at four concentrations (0.4, 2, 10 and 50 µM). […] The current amplitude in percentage of control at +50 mV was plotted against the logarithm of the concentration.

On to `C[C@@H](c1ccc2c(c1)N(CC1CC1)CCO2)N(C)C(=O)/C=C/c1ccccc1F` [SMB-1, (E)-N-[(S)-1-(4-Cyclopropylmethyl-3,4-dihydro-2H-1,4-benzoxazin-6-yl)-ethyl]-3-(2-fluoro-phenyl)-N-methyl-acrylamide], for which the “effect on activation kinetics” value at KV7.4-W242L (10 µM) is listed as “neither any significant effect”. Moreover, at KV7.4-W242L (10 µM SMB-1, +50 mV, n = 5, read-out: current amplitude, % of control), the remaining activity at 10 µM is 74.8 ± 4.2%. On KV7.4-W242L (10 µM, control 5.5±4.5 mV, n = 5, p = 0.2), the “V0.5, voltage-dependence of activation in presence of compound” value is reported as 4.3±4.9 mV. In addition, the “τdeact, deactivation time constant in presence of compound” value on KV7.4-W242L (10 µM, control 12.5±2.2 ms, n = 5, p = 0.5) stood at 12.3 ± 2.2 ms. In addition, the fraction unbound at 5 h in data set [1] stood at 0.006 ± 0.004; in data set [2] it was 0.001 ± 0.001. In addition, in data set [3], the “concentration above which the drug precipitated” value is recorded as “above 50 µM”.
